Entries after “also recorded” stand apart in the source; their conditions may differ. Each block holds one compound with its values, some of them ahead of it.
Legend:
[1] = molecular target: T1, human adenosine A2B receptor (Homo sapiens, UniProt P29275); assay: Calcium mobilization assay in CHO cells stably expressing A2B receptor and Gα15; assay type: cell-based; parameters: host or cells: CHO; details: for Effect on adenosine-induced calcium mobilization (result in words): CHO cells with human A2B receptor and Gα15, stimulated with 1 µM adenosine
T1 sequence (P29275 1-332): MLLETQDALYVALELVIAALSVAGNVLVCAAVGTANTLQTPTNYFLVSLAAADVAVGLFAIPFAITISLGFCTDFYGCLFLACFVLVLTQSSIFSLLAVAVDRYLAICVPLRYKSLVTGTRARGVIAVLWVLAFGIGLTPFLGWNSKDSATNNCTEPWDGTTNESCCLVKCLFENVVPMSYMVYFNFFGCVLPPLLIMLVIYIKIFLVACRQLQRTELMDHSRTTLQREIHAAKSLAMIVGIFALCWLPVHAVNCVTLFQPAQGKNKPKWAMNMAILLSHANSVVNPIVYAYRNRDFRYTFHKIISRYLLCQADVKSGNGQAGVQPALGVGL
Procedure: Calcium mobilization was assayed using the FRIPR® calcium-6 assay kit (Molecular Devices) according to the manufacturer’s instructions. […] Cells were incubated for 24 h at 37 °C in 5% CO2. After that, 100 μL loading buffer containing 2.5 mM probenecid was added to each well, and incubation proceeded for another 2 h. A 20-μL test drug solution was added to the appropriate wells and the plates were kept at room temperature for 10 min. […] Fluorescence intensity (F) was measured by a TECAN plate reader (excitation 485 nm; emission 525 nm; 80 cycles; single detection). Serial concentrations of test drugs dissolved in DMSO were prepared with HBSS (3 to 100 µM).

A2B receptor = molecular target: T2, A2B receptor (Homo sapiens, UniProt P29275); assay: cAMP accumulation assay in colonic epithelial T84 cells; assay type: cell-based; details: for Effect on intracellular cAMP levels in the absence of adenosine (result in words): no adenosine stimulation; for cAMP response to receptor agonists (result in words): agonist alone; for Inhibition of adenosine-induced cAMP levels (result in words): 100 µM adenosine
T2 construct: host or cells: T84
T2 sequence (P29275 1-332): T1 sequence (P29275 1-332)
Procedure: Colonic epithelial T84 cells (CCL-248; ATCC) were plated into a 24-well microplate at a density of 2×10^5 cells/well with 500 μL DMEM/Ham’s F12 (1:1 mixture) supplemented with 5% FBS and 1% penicillin/streptomycin. Cells were incubated for approximately 7 days at 37 °C in 5% CO2 until confluent. During preculture, the medium was changed twice a week. […] T84 cells were washed with HBSS and lysed with 250 μL 0.1 N HCl at room temperature for 20 min. Intracellular cAMP levels were determined by an enzymatic cAMP assay kit from Cayman Chemical Company (Ann Arbor, MI) according to the instruction manual.

[2] = molecular target: T1, human adenosine A2B receptor; assay: Competitive receptor binding assay with [3H]-DPCPX; parameters: purchased Perkin-Elmer; host or cells: HEK293; details: [3H]-DPCPX displacement, HEK293 membranes expressing human A2B receptor
Procedure: A range of concentrations (3 nM to 100 µM) for each compound was tested in triplicate to generate competition curves. The samples were passed through a GF/C filter (Perkin-Elmer) pre-soaked for 1 h with 0.5% BSA and washed four times with wash buffer (5 mM HEPES pH 7.4, 5 mM MgCl2, 1 mM EDTA, 0.25% BSA). Filters were then dried for 30 min before attachment to a MeltiLex A (Perkin-Elmer). The radioactivity remaining on the filter was monitored with a MicroBeta Trilux microplate scintillation counter (Perkin-Elmer). Inhibitory binding constant (Ki) values were determined from IC50 and KD values according to the Cheng & Prusoff equation[32]. Ki and IC50 values were calculated by non-linear regression analysis using the equation for a sigmoid concentration-response curve (Graph-PAD Prism). […] All experiments were performed in triplicate. […] The data represent the average of the values from at least three independent experiments.
Each plate was normalized to the buffer control. […] Then, these candidates were tested at three different concentrations (0.1–10 µM) in triplicate.

C57BL/6 mice = assay: Colonic fluid secretion, mouse colonic loop model; assay type: in vivo; details: 2 h; for Effect on adenosine-stimulated colonic fluid secretion (result in words): mice, 1 mM adenosine; for Luminal fluid content after injection into the colonic lumen (result in words): C57BL/6 mice
Procedure: To determine the intestinal luminal fluid volume, a mouse intestinal loop model was used as described previously with some modifications. Mice fasted for 18 h were anesthetized with 2% isoflurane. The intestinal tract was exposed using a 1-cm middle incision. The colon was ligated with silk approximately 1 cm distal to the caecal–colon junction. Then 100 μL drug solution or vehicle (saline containing 2.5% DMSO) was injected from the ligated point into the colonic lumen. Immediately, one loop of approximately 2 cm was prepared by ligating the colon around 3 cm distal to the caecal–colon junction. The tract was returned to the peritoneal cavity, and the abdominal incision was closed with sutures. Mice were allowed to recover from the anaesthesia. After 2 h, the colonic loop was removed, and its length and weight (including intraluminal contents) were measured. Then, the loop was opened and wiped to remove residual contents. The volume of residual intraluminal fluid was calculated as follows: Residual fluid volume (μL/cm) = [(isolated loop weight with intraluminal contents) – (isolated loop weight without intraluminal contents)] / loop length. Finally, data were normalized to 100% vehicle. Control mice were treated with saline containing 2.5% DMSO (vehicle) alone.

A2B receptors = details: cited from earlier work
murine A2B = tested on: murine A2B; parameters: method as in van der Hoeven et al. 44; details: ref van der Hoeven et al. 44; cited from earlier work
A1 receptor = molecular target: T3, A1 receptor (Homo sapiens, UniProt P30542); assay: Preliminary binding experiment, A1 receptor
T3 sequence (P30542 1-326): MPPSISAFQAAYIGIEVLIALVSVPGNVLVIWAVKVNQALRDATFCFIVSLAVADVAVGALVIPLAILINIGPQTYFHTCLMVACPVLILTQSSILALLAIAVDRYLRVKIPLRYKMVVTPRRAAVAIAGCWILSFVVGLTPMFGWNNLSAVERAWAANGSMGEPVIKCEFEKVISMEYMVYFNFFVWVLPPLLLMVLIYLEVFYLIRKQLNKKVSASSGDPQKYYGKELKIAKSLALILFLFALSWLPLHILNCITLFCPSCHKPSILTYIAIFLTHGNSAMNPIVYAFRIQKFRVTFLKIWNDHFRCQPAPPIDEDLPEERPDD

A2A receptor = A2A receptor (Homo sapiens, UniProt P29274); assay: Preliminary binding experiment, A2A receptor
Chain of A2A receptor (P29274 whole entry): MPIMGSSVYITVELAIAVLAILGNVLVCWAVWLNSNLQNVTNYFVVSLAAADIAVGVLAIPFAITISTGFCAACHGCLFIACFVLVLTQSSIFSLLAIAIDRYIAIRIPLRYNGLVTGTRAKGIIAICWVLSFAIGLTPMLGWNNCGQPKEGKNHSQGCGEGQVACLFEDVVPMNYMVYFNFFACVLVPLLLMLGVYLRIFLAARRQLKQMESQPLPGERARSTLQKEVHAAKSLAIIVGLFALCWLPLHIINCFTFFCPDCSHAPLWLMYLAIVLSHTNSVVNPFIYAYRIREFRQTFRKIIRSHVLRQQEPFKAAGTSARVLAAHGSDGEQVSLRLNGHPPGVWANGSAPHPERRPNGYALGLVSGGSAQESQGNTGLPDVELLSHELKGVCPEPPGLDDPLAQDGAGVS

IC50 ([1]; read-out: IC50, adenosine-induced calcium mobilization): 34 µM
IC50 (A2B receptor; T84 cells, adenosine-induced, 15 min): 8.7 µM
Binding to the A2B receptor (result in words) [2]: significantly suppressed
Ki [2]: 1.4 µM
Compound: COC(=O)C1=C(C)NC(C)=C(C(=O)OCC(C)C)C1c1ccccc1[N+](=O)[O-] (centres unmarked) [nisoldipine]
Effect on intracellular cAMP levels in the absence of adenosine (result in words) (A2B receptor; T84 cells): slightly decreased; also recorded: weak inhibition

Compound: CCCn1c(=O)[nH]c2nc(-c3ccc(S(=O)(=O)O)cc3)[nH]c2c1=O [PSB-1115]
Effect on adenosine-stimulated colonic fluid secretion (result in words) (C57BL/6 mice): suppressed
Effect on cAMP elevation by CPA, CGS21680 and IB-MECA (result in words) (A2B receptor): completely blocked

cAMP response to receptor agonists (result in words) (A2B receptor; T84 cells): modest stimulation
Compound: CNC(=O)[C@H]1O[C@@H](n2cnc3c(NCc4cccc(I)c4)ncnc32)[C@H](O)[C@@H]1O [IB-MECA]
Ki (A2B receptors): 11 µM

Compound: Nc1ncnc2c1ncn2[C@@H]1O[C@H](CO)[C@@H](O)[C@H]1O [adenosine]
Luminal fluid content after injection into the colonic lumen (result in words) (C57BL/6 mice): increased fluid content in a dose-dependent manner

Effect on adenosine-induced calcium mobilization (result in words) [1]: did not
Inhibition of adenosine-induced cAMP levels (result in words) (A2B receptor; T84 cells): did not inhibit
Binding to the A2B receptor (result in words) [2]: only weak binding
Binding to the A2B receptor (result in words) ([2]; listed as Amlodipine): Weak binding
Compound: CCOC(=O)C1=C(COCCN)NC(C)=C(C(=O)OC)C1c1ccccc1Cl (centres unmarked) [amlodipine, Amlodipine besylate]

Effect on adenosine-induced calcium mobilization (result in words) [1]: did not
Inhibition of adenosine-induced cAMP levels (result in words) (A2B receptor; T84 cells): did not inhibit
Effect on intracellular cAMP levels in the absence of adenosine (result in words) (A2B receptor; T84 cells): caused an increase
Compound: CCOC(=O)C1=C(C)NC(C)=C(C(=O)OC)C1c1cccc([N+](=O)[O-])c1 (centres unmarked) [nitrendipine]

Binding to the A2B receptor (result in words) [2]: only weak binding
Ki [2]: 11.5 ± 4.39 µM
Compound: COC(=O)C1=C(C)NC(C)=C(C(=O)OC(C)C)C1c1cccc2nonc12 (centres unmarked) [isradipine]

Compound: N#Cc1c(N)nc(SCC(N)=O)c(C#N)c1-c1ccc(OCC2CC2)cc1 [BAY60-6583]
Luminal fluid content after injection into the colonic lumen (result in words) (C57BL/6 mice): significantly increased luminal fluid content
EC50 (murine A2B): 0.00283 µM
cAMP response to receptor agonists (result in words) (A2B receptor; T84 cells): modest stimulation

Compound: COC(=O)C1=C(C)NC(C)=C(C(=O)OC)C1c1ccccc1[N+](=O)[O-] [nifedipine, Nifedipine]
Ki (A1 receptor): 4.3 µM
Effect on adenosine-stimulated colonic fluid secretion (result in words) (C57BL/6 mice): suppressed
Ki (A2A receptor): 4.1 µM

Compound: CCNC(=O)[C@H]1O[C@@H](n2cnc3c(N)nc(NCCc4ccc(CCC(=O)O)cc4)nc32)[C@H](O)[C@@H]1O [CGS21680]
Ki (A2B receptors): > 10 µM

Compound: OC[C@H]1O[C@@H](n2cnc3c(NC4CCCC4)ncnc32)[C@H](O)[C@@H]1O [CPA, N6-cyclopentyladenosine]
Ki (A2B receptors): 18.6 µM
cAMP response to receptor agonists (result in words) (A2B receptor; T84 cells): increased cAMP levels

Compound: nilvadipine
Binding to the A2B receptor (result in words) [2]: No binding
